Series [1] concerns the target p107, non-ubiquitinated 107 kDa plant-type PEPC (PTPC) subunit encoded by sorghum CP21 (Sorghum bicolor (endogenous in germinated seeds)) (UniProt P29195). The series is described as follows: SEC; Superdex-200 HR 16/60 gel filtration FPLC (calibrated column) of native PEPC purified from 48 h germinated sorghum seeds, in buffer E (50 mM HEPES-KOH pH 8.0, 5 mM MgCl2, 1 mM DTT, 20% glycerol, 100 mM KCl, phosphatase inhibitors); fractions immunoblotted with anti-COS PTPC; native molecular mass estimated as ~460 kDa.

The target in series [2] is T1, DeUB-PEPC (in vitro deubiquitinated p107 homotetrameric PEPC of germinating sorghum seeds; CP21) (Sorghum bicolor, UniProt P29195).
T1 construct: p107 homotetramer; not phosphorylated at Ser7
T1 sequence (P29195 1-960): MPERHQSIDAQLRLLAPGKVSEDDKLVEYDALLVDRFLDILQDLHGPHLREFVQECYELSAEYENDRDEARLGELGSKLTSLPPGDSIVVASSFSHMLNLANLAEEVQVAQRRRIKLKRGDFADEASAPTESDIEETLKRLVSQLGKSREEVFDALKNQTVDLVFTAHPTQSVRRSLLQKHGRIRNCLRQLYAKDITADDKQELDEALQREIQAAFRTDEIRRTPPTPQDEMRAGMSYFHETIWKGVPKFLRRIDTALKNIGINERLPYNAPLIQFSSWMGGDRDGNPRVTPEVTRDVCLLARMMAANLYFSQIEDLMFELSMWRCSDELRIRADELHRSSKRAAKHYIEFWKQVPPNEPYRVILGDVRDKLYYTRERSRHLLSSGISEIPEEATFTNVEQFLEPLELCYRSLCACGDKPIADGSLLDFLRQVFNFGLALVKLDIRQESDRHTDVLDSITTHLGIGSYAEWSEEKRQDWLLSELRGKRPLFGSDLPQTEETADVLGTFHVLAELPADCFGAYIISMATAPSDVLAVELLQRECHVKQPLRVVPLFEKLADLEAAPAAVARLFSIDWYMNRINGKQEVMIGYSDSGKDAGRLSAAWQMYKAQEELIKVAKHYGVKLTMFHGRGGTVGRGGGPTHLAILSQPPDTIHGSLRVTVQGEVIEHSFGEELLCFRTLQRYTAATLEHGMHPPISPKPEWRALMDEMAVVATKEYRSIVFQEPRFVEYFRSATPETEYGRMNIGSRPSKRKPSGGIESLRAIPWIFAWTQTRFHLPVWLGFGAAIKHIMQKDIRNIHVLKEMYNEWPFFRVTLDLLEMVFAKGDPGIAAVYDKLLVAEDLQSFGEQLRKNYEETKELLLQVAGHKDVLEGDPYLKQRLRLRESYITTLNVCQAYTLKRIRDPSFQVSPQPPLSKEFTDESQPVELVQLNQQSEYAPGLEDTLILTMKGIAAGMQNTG
The series is described as follows: biochemical. Set-up: PEPC activity with 2 mM metabolite at subsaturating 0.1 mM PEP, as per cent of control. The conditions noted are these: pH 8.0, 0.1 mM PEP; for remaining activity at 2000 µM: read-out: % of control remaining. The procedure: (§1) The impact of various metabolite effectors (2mM each) on the activity of the purified, monoubiquitinated heterotetrameric sorghum seed PEPC (UB-PEPC) versus the in vitro deubiquitinated homotetrameric enzyme (deUB-PEPC) was assessed using suboptimal assay conditions (0.1mM PEP, pH 7.3 and 8.0). With the exception of L-malate, monoubiquitination of germinating sorghum seed PEPC (CP21) exerted little to no influence in the response to the metabolites tested (Supplementary Table S2 at JXB online). […] In addition, the K m(PEP) value of UB-PEPC appeared to be slightly higher than that of deUB-PEPC, although the differences were not statistically significant (Table 1). Similarly, monoubiquitination of COS and harsh hakea Class-1 PEPCs is inhibitory, as it enhances sensitivity to allosteric inhibitors such as L-malate and L-aspartate, while interfering with the enzyme’s ability to bind PEP ([Uhrig et al., 2008]; [Shane et al., 2013]). Apparent K m and IC50 (concentration of inhibitor producing 50% inhibition) values were calculated using a computer kinetics program as previously described ([Tripodi et al., 2005]). All kinetic parameters are the means of three independent experiments and are reproducible to within ±15% (SE) of the mean value. Stock solutions of metabolites were made equimolar with MgCl2 and adjusted to pH 7.5.

The target in series [3] is T2, UB-PEPC (purified monoubiquitinated p110:p107 heterotetrameric PEPC of germinating sorghum seeds; CP21) (Sorghum bicolor, UniProt P29195).
T2 construct: native, purified from 48 h germinated seeds, untagged; intact N-terminus, not phosphorylated at Ser7; heterotetramer ~460 kDa of p110 and p107 in equivalent ratio; p110 = p107 monoubiquitinated at Lys624
T2 sequence (P29195 1-960): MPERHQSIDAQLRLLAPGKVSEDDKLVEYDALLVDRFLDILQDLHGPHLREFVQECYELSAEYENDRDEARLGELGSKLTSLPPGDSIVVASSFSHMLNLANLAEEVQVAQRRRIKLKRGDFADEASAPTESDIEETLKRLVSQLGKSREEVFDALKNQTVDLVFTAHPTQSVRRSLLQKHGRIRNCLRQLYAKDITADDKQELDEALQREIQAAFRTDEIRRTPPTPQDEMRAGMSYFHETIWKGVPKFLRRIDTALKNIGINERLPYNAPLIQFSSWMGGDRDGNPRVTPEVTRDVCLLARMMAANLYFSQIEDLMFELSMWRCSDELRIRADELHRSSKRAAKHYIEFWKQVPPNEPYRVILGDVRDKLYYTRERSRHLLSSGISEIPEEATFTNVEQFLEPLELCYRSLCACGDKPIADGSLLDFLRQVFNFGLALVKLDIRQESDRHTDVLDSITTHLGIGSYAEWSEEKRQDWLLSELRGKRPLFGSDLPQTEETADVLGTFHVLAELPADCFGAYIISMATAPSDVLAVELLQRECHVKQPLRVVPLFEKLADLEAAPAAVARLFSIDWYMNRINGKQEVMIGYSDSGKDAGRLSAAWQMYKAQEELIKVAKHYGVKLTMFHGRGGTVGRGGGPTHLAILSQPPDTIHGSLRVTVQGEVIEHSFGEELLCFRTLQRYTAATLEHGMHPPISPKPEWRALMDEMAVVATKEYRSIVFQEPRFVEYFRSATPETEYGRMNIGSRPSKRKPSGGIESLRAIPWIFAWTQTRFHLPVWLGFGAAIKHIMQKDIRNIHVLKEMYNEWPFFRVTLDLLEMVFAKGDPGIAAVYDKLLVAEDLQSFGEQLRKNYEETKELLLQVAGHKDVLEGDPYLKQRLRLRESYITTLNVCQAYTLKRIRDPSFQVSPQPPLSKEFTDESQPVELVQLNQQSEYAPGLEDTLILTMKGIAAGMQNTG
Description: biochemical. Set-up: PEPC activity with 2 mM metabolite at subsaturating 0.1 mM PEP, as per cent of control. To be noted: pH 8.0, 0.1 mM PEP; read-out: % of control remaining. The procedure:
as §1

Series [4] addresses T1, DeUB-PEPC (in vitro deubiquitinated p107 homotetrameric PEPC of germinating sorghum seeds; CP21). The series is described as follows: spectrophotometric, NADH at […] nm, coupled with malate dehydrogenase. The format is biochemical. The conditions noted are these: read-out: pH 7.3 / DeUB-PEPC.
Series [5] has the same target. The series is described as follows: biochemical. Set-up: PEPC activity of purified enzyme with 2 mM metabolite effector at subsaturating 0.1 mM PEP, relative to control. The conditions noted are these: pH 7.3, 0.1 mM PEP; for remaining activity at 2000 µM: read-out: % of control remaining. The procedure: as §1
Series [6] has as its target T2, UB-PEPC (purified monoubiquitinated p110:p107 heterotetrameric PEPC of germinating sorghum seeds; CP21). The series is described as follows: biochemical. Set-up: PEPC activity of purified enzyme with 2 mM metabolite effector at subsaturating 0.1 mM PEP, relative to control. The conditions noted are these: pH 7.3, 0.1 mM PEP; read-out: % of control remaining. The procedure:
as §1

Substrate in series [7]: C=C(OP(=O)(O)O)C(=O)O
Description: purified protein. It counts as biochemical, Sorghum bicolor. The conditions noted are these: pH 8.0, 25 °C, 5 mM NaHCO3, 5 mM MgCl2, apparent Km, deubiquitinated enzyme.

Read-outs that look alike come from different tables or passages of the source.

As a reminder, the Km is the substrate concentration at which the rate is half of its maximum.

On to “p110, 110 kDa plant-type PEPC (PTPC) subunit encoded by sorghum CP21, monoubiquitinated at Lys624 (from UniProt P29195 1-960) (enzyme)”, for which the stoichiometry N (subunits in the oligomer) in series [1] is 4.

Consider `O=C(O)CC(O)C(=O)O` (stereo not shown) [Malate], for which the remaining activity at 2000 µM in series [2] and in series [3] was 93% each time.

With `O=C(O)C[C@H](O)C(=O)O` [L-malate], in series [4], the IC50 was found to be 3620 ± 240 µM. Further, the results for the remaining activity at 2000 µM in series [5] and in series [6] were 67% and 53%, respectively.

For the molecule `O=P(O)(O)OC1O[C@H](CO)[C@@H](O)[C@H](O)[C@H]1O` (stereo partly shown) [Glc-1-P], the remaining activity at 2000 µM was 111% in series [5], 115% in series [6], 116% in series [2] and 116% in series [3].

`N[C@@H](CC(=O)O)C(=O)O` [Aspartate]: the remaining activity at 2000 µM in series [5] worked out at 91%; in series [6] it was 94%; in series [2], 109%; in series [3], 109%.

Consider `O=C(O)C[C@H](C(=O)O)[C@@H](O)C(=O)O` [isocitrate], for which, in series [4], the IC50 is 1370 ± 120 µM. Moreover, the remaining activity at 2000 µM in series [5] was determined as 47%; in series [6], 47%; in series [2] it was 38%; in series [3] it was 38%.

As to `Nc1ncnc2c1ncn2[C@@H]1O[C@H](COP(=O)(O)OP(=O)(O)OP(=O)(O)O)[C@@H](O)[C@H]1O` [ATP], the “% of control remaining” value in series [5] (2000 µM) came out at 88%; in series [2] (2000 µM), 111%.

Consider `O=P(O)(O)OC[C@H]1OC(O)[C@H](O)[C@@H](O)[C@@H]1O` (stereo partly shown) [Glc-6-P], for which the remaining activity at 2000 µM in series [5] was 112%; in series [6], 127%; in series [2], 120%; in series [3], 121%.

Consider `O=P(O)(O)OCC(O)CO` (stereo not shown) [Glycerol-3-P], for which the remaining activity at 2000 µM in series [5] stood at 108%; in series [6], 107%; in series [2], 120%; in series [3], 124%.

Turning to `O=C[C@H](O)[C@H](O)[C@H](O)COP(=O)(O)O` [Ribose-5-P], the remaining activity at 2000 µM in series [5] was 98%; in series [6], 98%; in series [2], 105%; in series [3], 105%.

B1: DeUB-PEPC (in vitro deubiquitinated p107 homotetrameric PEPC of germinating sorghum seeds; CP21) (Sorghum bicolor) (protein)
chain: MPERHQSIDAQLRLLAPGKVSEDDKLVEYDALLVDRFLDILQDLHGPHLREFVQECYELSAEYENDRDEARLGELGSKLTSLPPGDSIVVASSFSHMLNLANLAEEVQVAQRRRIKLKRGDFADEASAPTESDIEETLKRLVSQLGKSREEVFDALKNQTVDLVFTAHPTQSVRRSLLQKHGRIRNCLRQLYAKDITADDKQELDEALQREIQAAFRTDEIRRTPPTPQDEMRAGMSYFHETIWKGVPKFLRRIDTALKNIGINERLPYNAPLIQFSSWMGGDRDGNPRVTPEVTRDVCLLARMMAANLYFSQIEDLMFELSMWRCSDELRIRADELHRSSKRAAKHYIEFWKQVPPNEPYRVILGDVRDKLYYTRERSRHLLSSGISEIPEEATFTNVEQFLEPLELCYRSLCACGDKPIADGSLLDFLRQVFNFGLALVKLDIRQESDRHTDVLDSITTHLGIGSYAEWSEEKRQDWLLSELRGKRPLFGSDLPQTEETADVLGTFHVLAELPADCFGAYIISMATAPSDVLAVELLQRECHVKQPLRVVPLFEKLADLEAAPAAVARLFSIDWYMNRINGKQEVMIGYSDSGKDAGRLSAAWQMYKAQEELIKVAKHYGVKLTMFHGRGGTVGRGGGPTHLAILSQPPDTIHGSLRVTVQGEVIEHSFGEELLCFRTLQRYTAATLEHGMHPPISPKPEWRALMDEMAVVATKEYRSIVFQEPRFVEYFRSATPETEYGRMNIGSRPSKRKPSGGIESLRAIPWIFAWTQTRFHLPVWLGFGAAIKHIMQKDIRNIHVLKEMYNEWPFFRVTLDLLEMVFAKGDPGIAAVYDKLLVAEDLQSFGEQLRKNYEETKELLLQVAGHKDVLEGDPYLKQRLRLRESYITTLNVCQAYTLKRIRDPSFQVSPQPPLSKEFTDESQPVELVQLNQQSEYAPGLEDTLILTMKGIAAGMQNTG
notes: p107 homotetramer; not phosphorylated at Ser7
For B1, the Km in series [7] was 36 ± 5 µM.

The record behind these values is publication PMC3904705, “In vivo monoubiquitination of anaplerotic phosphoenolpyruvate carboxylase occurs at Lys624 in germinating sorghum seeds” (Journal of Experimental Botany, 2013).
